What all share (test): relative viability (nuclei count vs DMSO), 5 days (fraction); higher = more cells survive
Compound in the assay “XMD14-99 + Luminespib”: CN1CCN(CC1)C2=CC(=C(C=C2)NC3=NC(=C(S3)C(=O)C4=C(C=CC=C4Cl)Cl)N)OC [XMD14-99] + CCNC(=O)c1noc(-c2cc(C(C)C)c(O)cc2O)c1-c1ccc(CN2CCOCC2)cc1 [Luminespib] (partner 0.01 µM)
An outline of the steps:
(§1)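 Relative viability is defined as nuclei in treated wells over nuclei in vehicle wells. Duplicate plates were run and medians reported. Lung cancer cell lines in 1536-well plates were dosed by pin tool one day after seeding, with one drug or with a fixed anchor-drug dose plus five library-drug doses (not always all listed) in √10 steps, and nuclei were counted after 5 days.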

Compound in the assay “XMD14-99 + Pemetrexed”: CN1CCN(CC1)C2=CC(=C(C=C2)NC3=NC(=C(S3)C(=O)C4=C(C=CC=C4Cl)Cl)N)OC [XMD14-99] + Nc1nc2[nH]cc(CCc3ccc(C(=O)N[C@@H](CCC(=O)O)C(=O)O)cc3)c2c(=O)[nH]1 [Pemetrexed] (partner 0.2 µM)
An outline of the steps:
as §1

Compound in the assay “AZD1208 + OSI-027”: N[C@@H]1CCCN(c2c(/C=C3\SC(=O)NC3=O)cccc2-c2ccccc2)C1 [AZD1208] + COc1cccc2cc(-c3nc([C@H]4CC[C@H](C(=O)O)CC4)n4ncnc(N)c34)[nH]c12 [OSI-027] (partner 0.5 µM)
Put shortly:
as §1

Compound in the assay “XMD14-99 + Crizotinib”: CN1CCN(CC1)C2=CC(=C(C=C2)NC3=NC(=C(S3)C(=O)C4=C(C=CC=C4Cl)Cl)N)OC [XMD14-99] + C[C@@H](Oc1cc(-c2cnn(C3CCNCC3)c2)cnc1N)c1c(Cl)ccc(F)c1Cl [Crizotinib] (partner 1 µM)
An outline of the steps: as §1

For the cell line RERF-LC-KJ, the relative viability with XMD14-99 + Luminespib (first compound 0.08 µM) amounted to 1.26; with XMD14-99 + Luminespib (first compound 0.8 µM), 1.13; with XMD14-99 + Luminespib (first compound 2.53 µM) it was 1.05; in the assay with XMD14-99 + Luminespib (first compound 8 µM), 0.822; with XMD14-99 + Pemetrexed (first compound 0.08 µM), 0.469; in the assay with XMD14-99 + Pemetrexed (first compound 0.8 µM) it was 0.506. For the same cell line, the relative viability in the assay with XMD14-99 + Pemetrexed (first compound 2.53 µM) was found to be 0.452; with XMD14-99 + Pemetrexed (first compound 8 µM), 0.449; with AZD1208 + OSI-027 (first compound 0.08 µM), 0.511; with AZD1208 + OSI-027 (first compound 0.253 µM), 0.558; with AZD1208 + OSI-027 (first compound 0.8 µM) it was 0.512; with AZD1208 + OSI-027 (first compound 2.53 µM), 0.518. Further, the relative viability in the assay with AZD1208 + OSI-027 (first compound 8 µM) is 0.41; with XMD14-99 + Crizotinib (first compound 0.08 µM), 0.891; with XMD14-99 + Crizotinib (first compound 0.8 µM), 0.836; in the assay with XMD14-99 + Crizotinib (first compound 2.53 µM), 0.845; with XMD14-99 + Crizotinib (first compound 8 µM) it was 0.699.
In the case of SK-LU-1, the relative viability with XMD14-99 + Luminespib (first compound 0.08 µM) was found to be 0.197; in the assay with XMD14-99 + Luminespib (first compound 0.8 µM), 0.201; with XMD14-99 + Luminespib (first compound 2.53 µM), 0.235; in the assay with XMD14-99 + Luminespib (first compound 8 µM), 0.184; in the assay with XMD14-99 + Pemetrexed (first compound 0.08 µM) it was 0.98; with XMD14-99 + Pemetrexed (first compound 0.8 µM), 1.02. The relative viability in the assay with XMD14-99 + Pemetrexed (first compound 2.53 µM) stood at 0.942; with XMD14-99 + Pemetrexed (first compound 8 µM) it was 0.684; in the assay with AZD1208 + OSI-027 (first compound 0.08 µM), 0.283; in the assay with AZD1208 + OSI-027 (first compound 0.253 µM), 0.337; with AZD1208 + OSI-027 (first compound 0.8 µM) it was 0.285; in the assay with AZD1208 + OSI-027 (first compound 2.53 µM), 0.316. Also, the relative viability amounted to 0.248 with AZD1208 + OSI-027 (first compound 8 µM); 0.788 in the assay with XMD14-99 + Crizotinib (first compound 0.08 µM); 0.923 with XMD14-99 + Crizotinib (first compound 0.8 µM); 0.796 with XMD14-99 + Crizotinib (first compound 2.53 µM); 0.58 in the assay with XMD14-99 + Crizotinib (first compound 8 µM).
On to SK-MES-1, for which the relative viability with XMD14-99 + Luminespib (first compound 0.08 µM) stood at 0.786; with XMD14-99 + Luminespib (first compound 0.8 µM) it was 0.73; in the assay with XMD14-99 + Luminespib (first compound 2.53 µM), 0.729; with XMD14-99 + Luminespib (first compound 8 µM), 0.566; with XMD14-99 + Pemetrexed (first compound 0.08 µM) it was 0.939; with XMD14-99 + Pemetrexed (first compound 0.8 µM) it was 0.833. For the same cell line, the relative viability with XMD14-99 + Pemetrexed (first compound 2.53 µM) is 0.882; with XMD14-99 + Pemetrexed (first compound 8 µM), 0.659; with AZD1208 + OSI-027 (first compound 0.08 µM), 0.541; in the assay with AZD1208 + OSI-027 (first compound 0.253 µM) it was 0.509; in the assay with AZD1208 + OSI-027 (first compound 0.8 µM) it was 0.492; with AZD1208 + OSI-027 (first compound 2.53 µM), 0.541. In addition, the relative viability is 0.461 with AZD1208 + OSI-027 (first compound 8 µM); 0.991 in the assay with XMD14-99 + Crizotinib (first compound 0.08 µM); 0.946 with XMD14-99 + Crizotinib (first compound 0.8 µM); 1.01 with XMD14-99 + Crizotinib (first compound 2.53 µM); 0.639 with XMD14-99 + Crizotinib (first compound 8 µM).
Regarding SW 1573, the relative viability came to 0.157 with XMD14-99 + Luminespib (first compound 0.08 µM); 0.365 with XMD14-99 + Luminespib (first compound 0.8 µM); 0.236 with XMD14-99 + Luminespib (first compound 2.53 µM); 0.214 with XMD14-99 + Luminespib (first compound 8 µM); 0.726 with XMD14-99 + Pemetrexed (first compound 0.08 µM); 0.847 with XMD14-99 + Pemetrexed (first compound 0.8 µM). For the same cell line, the relative viability with XMD14-99 + Pemetrexed (first compound 2.53 µM) worked out at 0.788; in the assay with XMD14-99 + Pemetrexed (first compound 8 µM) it was 0.776; with AZD1208 + OSI-027 (first compound 0.08 µM), 0.397; with AZD1208 + OSI-027 (first compound 0.253 µM) it was 0.548; with AZD1208 + OSI-027 (first compound 0.8 µM), 0.451; in the assay with AZD1208 + OSI-027 (first compound 2.53 µM), 0.381. The relative viability with AZD1208 + OSI-027 (first compound 8 µM) was 0.348; with XMD14-99 + Crizotinib (first compound 0.08 µM), 0.792; in the assay with XMD14-99 + Crizotinib (first compound 0.8 µM), 0.878; with XMD14-99 + Crizotinib (first compound 2.53 µM), 0.793; with XMD14-99 + Crizotinib (first compound 8 µM), 0.757.
Take UMC-11: the relative viability with XMD14-99 + Luminespib (first compound 0.08 µM) came out at 0.98; with XMD14-99 + Luminespib (first compound 0.8 µM), 1.05; in the assay with XMD14-99 + Luminespib (first compound 2.53 µM), 0.98; in the assay with XMD14-99 + Luminespib (first compound 8 µM), 0.828; with XMD14-99 + Pemetrexed (first compound 0.08 µM), 0.752; with XMD14-99 + Pemetrexed (first compound 0.8 µM), 0.769. For the same cell line, the relative viability worked out at 0.688 with XMD14-99 + Pemetrexed (first compound 2.53 µM); 0.69 with XMD14-99 + Pemetrexed (first compound 8 µM); 0.333 with AZD1208 + OSI-027 (first compound 0.08 µM); 0.321 with AZD1208 + OSI-027 (first compound 0.253 µM); 0.321 with AZD1208 + OSI-027 (first compound 0.8 µM); 0.329 with AZD1208 + OSI-027 (first compound 2.53 µM). Besides, the relative viability with AZD1208 + OSI-027 (first compound 8 µM) amounted to 0.294; in the assay with XMD14-99 + Crizotinib (first compound 0.08 µM), 0.619; in the assay with XMD14-99 + Crizotinib (first compound 0.8 µM), 0.582; with XMD14-99 + Crizotinib (first compound 2.53 µM) it was 0.721; with XMD14-99 + Crizotinib (first compound 8 µM), 0.577.

The record behind these values is the supplement of paper PMC10307832.
